# Laboratory results as given in ChEMBL document CHEMBL1201861, “Genomics of Drug Sensitity in Cancer screening data, Wellcome Trust Sanger Institute”.
# Columns and labels:
# Test in all cases: cells
# COLO-800 = format: functional, cell-based, Homo sapiens; conditions: Homo sapiens, COLO-800;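 further: growth inhibition of COLO-800 cells, read out with a cell viability assay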
# Description: SANGER: Inhibition of human COLO-800 cell growth in a cell viability assay.
# D283 Med = format: functional, cell-based, Homo sapiens; conditions: Homo sapiens, D283 Med
# Description: SANGER: Inhibition of human D-283MED cell growth in a cell viability assay.
# DK-MG = format: functional, cell-based, Homo sapiens; conditions: Homo sapiens, DK-MG;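 further: growth inhibition of DK-MG cells, read out with a cell viability assay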
# Description: SANGER: Inhibition of human DK-MG cell growth in a cell viability assay.
# ES6 = format: functional, cell-based, Homo sapiens; conditions: Homo sapiens, ES6;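 further: growth inhibition of human ES6 cells, read out with a cell viability assay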
# Description: SANGER: Inhibition of human ES6 cell growth in a cell viability assay.
# EW-11 = format: functional, cell-based, Homo sapiens; conditions: Homo sapiens, EW-11;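 further: growth inhibition of human EW-11 cells, measured with a cell viability assay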
# Description: SANGER: Inhibition of human EW-11 cell growth in a cell viability assay.
# EW-3 = format: functional, cell-based; conditions: Homo sapiens;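 further: cell viability assay read-out, IC50 reflects inhibition of growth of the EW-3 cells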
# Description: SANGER: Inhibition of human EW-3 cell growth in a cell viability assay.
# GAK = format: functional, cell-based, Homo sapiens; conditions: Homo sapiens, GAK;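 further: cell growth inhibition read out by a cell viability assay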
# Description: SANGER: Inhibition of human GAK cell growth in a cell viability assay.
# HCC1937 = format: functional, cell-based, Homo sapiens; conditions: Homo sapiens, HCC1937;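 further: growth inhibition measured with a cell viability read-out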
# Description: SANGER: Inhibition of human HCC1937 cell growth in a cell viability assay.
# HCC1954 = format: functional, cell-based, Homo sapiens; conditions: Homo sapiens, HCC1954;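 further: growth inhibition of human HCC1954 cells, read out with a cell viability assay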
# Description: SANGER: Inhibition of human HCC1954 cell growth in a cell viability assay.
# HCC2218 = format: functional, cell-based; conditions: Homo sapiens;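 further: cell viability assay read-out, with IC50 given as the concentration that inhibits growth of the cell line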
# Description: SANGER: Inhibition of human HCC2218 cell growth in a cell viability assay.
# Huh-7 = format: functional, cell-based, Homo sapiens; conditions: Homo sapiens, Huh-7;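 further: HuH-7 cell growth inhibition, read out with a cell viability assay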
# Description: SANGER: Inhibition of human HuH-7 cell growth in a cell viability assay.
# IA-LM = format: functional, cell-based, Homo sapiens; conditions: Homo sapiens, IA-LM;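 further: cell viability assay measuring growth inhibition of human IA-LM cells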
# Description: SANGER: Inhibition of human IA-LM cell growth in a cell viability assay.
# IST-SL1 = format: functional, cell-based, Homo sapiens; conditions: Homo sapiens, IST-SL1;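 further: growth inhibition of human IST-SL1 cells, read out with a cell viability assay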
# Description: SANGER: Inhibition of human IST-SL1 cell growth in a cell viability assay.
# KE-37 = format: functional, cell-based; conditions: Homo sapiens;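 further: growth inhibition of KE-37 cells, read out with a cell viability assay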
# Description: SANGER: Inhibition of human KE-37 cell growth in a cell viability assay.
# KLE = format: functional, cell-based, Homo sapiens; conditions: Homo sapiens, KLE;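 further: growth inhibition of human KLE cells, read out with a cell viability assay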
# Description: SANGER: Inhibition of human KLE cell growth in a cell viability assay.
# KS-1 = format: functional, cell-based, Homo sapiens; conditions: Homo sapiens, KS-1;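 further: growth inhibition of KS-1 cells, read out with a cell viability assay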
# Description: SANGER: Inhibition of human KS-1 cell growth in a cell viability assay.
# LAN-6 = format: functional, cell-based, Homo sapiens; conditions: Homo sapiens, LAN-6;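 further: growth inhibition of LAN-6 cells, determined with a cell viability assay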
# Description: SANGER: Inhibition of human LAN-6 cell growth in a cell viability assay.
# LS-123 = format: functional, cell-based, Homo sapiens; conditions: Homo sapiens, LS-123
# Description: SANGER: Inhibition of human LS-123 cell growth in a cell viability assay.
# MC-IXC = format: functional, cell-based, Homo sapiens; conditions: Homo sapiens, MC-IXC;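 further: growth inhibition of MC-IXC cells, read out with a cell viability assay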
# Description: SANGER: Inhibition of human MC-IXC cell growth in a cell viability assay.
# MDA-MB-453 = format: functional, cell-based, Homo sapiens; conditions: Homo sapiens, MDA-MB-453
# Description: SANGER: Inhibition of human MDA-MB-453 cell growth in a cell viability assay.
# MEG-01 = format: functional, cell-based; conditions: Homo sapiens;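 further: growth inhibition of MEG-01 cells, read out by a cell viability assay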
# Description: SANGER: Inhibition of human MEG-01 cell growth in a cell viability assay.
# MKN-1 = format: functional, cell-based, Homo sapiens; conditions: Homo sapiens, MKN-1;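 further: growth inhibition of human MKN1 cells, read out by a cell viability measurement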
# Description: SANGER: Inhibition of human MKN1 cell growth in a cell viability assay.
# NCI-H1437 = format: functional, cell-based, Homo sapiens; conditions: Homo sapiens, NCI-H1437;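 further: growth inhibition of human NCI-H1437 cells, read out by a cell viability assay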
# Description: SANGER: Inhibition of human NCI-H1437 cell growth in a cell viability assay.
# NCI-H1581 = format: functional, cell-based, Homo sapiens; conditions: Homo sapiens, NCI-H1581;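 further: cell growth inhibition read out by a viability assay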
# Description: SANGER: Inhibition of human NCI-H1581 cell growth in a cell viability assay.
# NCI-H2122 = format: functional, cell-based, Homo sapiens; conditions: Homo sapiens, NCI-H2122;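 further: growth inhibition of the cells, read out with a cell viability assay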
# Description: SANGER: Inhibition of human NCI-H2122 cell growth in a cell viability assay.
# NCI-H2347 = format: functional, cell-based, Homo sapiens; conditions: Homo sapiens, NCI-H2347;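 further: growth inhibition of the cell line, read out with a cell viability assay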
# Description: SANGER: Inhibition of human NCI-H2347 cell growth in a cell viability assay.
# NY = format: functional, cell-based, Homo sapiens; conditions: Homo sapiens, NY
# Description: SANGER: Inhibition of human NY cell growth in a cell viability assay.
# OVCAR-5 = format: functional, cell-based, Homo sapiens; conditions: Homo sapiens, OVCAR-5;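 further: growth inhibition of human OVCAR-5 cells, read out with a cell viability assay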
# Description: SANGER: Inhibition of human OVCAR-5 cell growth in a cell viability assay.
# RD = format: functional, cell-based, Homo sapiens; conditions: Homo sapiens, RD
# Description: SANGER: Inhibition of human RD cell growth in a cell viability assay.
# RPMI-2650 = format: functional, cell-based, Homo sapiens; conditions: Homo sapiens, RPMI-2650
# Description: SANGER: Inhibition of human RPMI-2650 cell growth in a cell viability assay.
# SBC-1 = format: functional, cell-based; conditions: Homo sapiens;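 further: cell viability assay measuring growth inhibition of the SBC-1 cell line, IC50 being the concentration that halves growth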
# Description: SANGER: Inhibition of human SBC-1 cell growth in a cell viability assay.
# SF-268 = format: functional, cell-based, Homo sapiens; conditions: Homo sapiens, SF-268;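 further: growth inhibition of SF-268 cells determined with a cell viability assay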
# Description: SANGER: Inhibition of human SF268 cell growth in a cell viability assay.
# SK-PN-DW = format: functional, cell-based; conditions: Homo sapiens;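 further: growth inhibition measured with a viability assay on these cells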
# Description: SANGER: Inhibition of human SK-PN-DW cell growth in a cell viability assay.
# SN12C = format: functional, cell-based, Homo sapiens; conditions: Homo sapiens, SN12C;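 further: growth inhibition of human SN12C cells, measured by a cell viability assay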
# Description: SANGER: Inhibition of human SN12C cell growth in a cell viability assay.
# SNU-449 = format: functional, cell-based, Homo sapiens; conditions: Homo sapiens, SNU-449
# Description: SANGER: Inhibition of human SNU-449 cell growth in a cell viability assay.
# SW982 = format: functional, cell-based; conditions: Homo sapiens;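 further: growth inhibition of SW982 cells, read out with a cell viability assay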
# Description: SANGER: Inhibition of human SW982 cell growth in a cell viability assay.
# SAOS-2 = format: functional, cell-based, Homo sapiens; conditions: Homo sapiens, SAOS-2;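 further: growth inhibition of human Saos-2 cells determined by a cell viability assay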
# Description: SANGER: Inhibition of human Saos-2 cell growth in a cell viability assay.
# 5637 = format: functional, cell-based, Homo sapiens; conditions: Homo sapiens
# Description: SANGER: Inhibition of human 5637 cell growth in a cell viability assay.
# 639-V = format: functional, cell-based, Homo sapiens; conditions: Homo sapiens, 639-V;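 further: growth inhibition of 639-V cells, read out with a cell viability assay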
# Description: SANGER: Inhibition of human 639-V cell growth in a cell viability assay.
# A388 = format: functional, cell-based, Homo sapiens; conditions: Homo sapiens, A388;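 further: growth inhibition of human A388 cells, read out with a cell viability assay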
# Description: SANGER: Inhibition of human A388 cell growth in a cell viability assay.
# A4-Fuk = format: functional, cell-based; conditions: Homo sapiens;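 further: growth inhibition of A4-Fuk cells, read out by a cell viability assay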
# Description: SANGER: Inhibition of human A4-Fuk cell growth in a cell viability assay.
# ALL-PO = format: functional, cell-based; conditions: Homo sapiens;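 further: growth inhibition of ALL-PO cells, read out by a cell viability assay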
# Description: SANGER: Inhibition of human ALL-PO cell growth in a cell viability assay.
# AN3-CA = format: functional, cell-based; conditions: Homo sapiens;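 further: growth inhibition of human AN3-CA cells measured by a cell viability assay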
# Description: SANGER: Inhibition of human AN3-CA cell growth in a cell viability assay.
# BHT-101 = format: functional, cell-based, Homo sapiens; conditions: Homo sapiens, BHT-101
# Description: SANGER: Inhibition of human BHT-101 cell growth in a cell viability assay.
# C3A = format: functional, cell-based, Homo sapiens; conditions: Homo sapiens, C3A;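 further: growth inhibition of C3A human cells, quantified with a cell viability readout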
# Description: SANGER: Inhibition of human C3A cell growth in a cell viability assay.
# CAL-120 = format: functional, cell-based, Homo sapiens; conditions: Homo sapiens, CAL-120;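 further: cell growth inhibition, read out as cell viability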
# Description: SANGER: Inhibition of human CAL-120 cell growth in a cell viability assay.
# CAL-51 = format: functional, cell-based, Homo sapiens; conditions: Homo sapiens, CAL-51;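 further: human CAL-51 cell line, growth inhibition read out via a cell viability assay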
# Description: SANGER: Inhibition of human CAL-51 cell growth in a cell viability assay.
# VA-ES-BJ = format: functional, cell-based, Homo sapiens; conditions: Homo sapiens, VA-ES-BJ;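 further: growth inhibition of the VA-ES-BJ cell line, read out by a cell viability assay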
# Description: SANGER: Inhibition of human VA-ES-BJ cell growth in a cell viability assay.
# WM-115 = format: functional, cell-based, Homo sapiens; conditions: Homo sapiens, WM-115
# Description: SANGER: Inhibition of human WM-115 cell growth in a cell viability assay.
# CAMA-1 = format: functional, cell-based, Homo sapiens; conditions: Homo sapiens, CAMA-1;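 further: growth inhibition of CAMA-1 cells, read out with a cell viability assay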
# Description: SANGER: Inhibition of human CAMA-1 cell growth in a cell viability assay.
# MFH-ino = format: functional, cell-based; conditions: Homo sapiens;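 further: growth inhibition of human MFH-ino cells, read out by a cell viability assay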
# Description: SANGER: Inhibition of human MFH-ino cell growth in a cell viability assay.
smiles,measurement,setting,value
COc1ccc(-c2ccc3c(N4CCOC[C@@H]4C)nc(N4CCOC[C@@H]4C)nc3n2)cc1CO [AZD-8055],IC50,COLO-800,698 nM
same,IC50,D283 Med,147 nM
same,IC50,DK-MG,> 2000 nM
same,IC50,ES6,1360 nM
same,IC50,EW-11,1620 nM
same,IC50,EW-3,40.6 nM
same,IC50,GAK,1320 nM
same,IC50,HCC1937,> 2000 nM
same,IC50,HCC1954,> 2000 nM
same,IC50,HCC2218,207 nM
same,IC50,Huh-7,434 nM
same,IC50,IA-LM,596 nM
same,IC50,IST-SL1,> 2000 nM
same,IC50,KE-37,432 nM
same,IC50,KLE,> 2000 nM
same,IC50,KS-1,1250 nM
same,IC50,LAN-6,> 2000 nM
same,IC50,LS-123,1250 nM
same,IC50,MC-IXC,727 nM
same,IC50,MDA-MB-453,1160 nM
same,IC50,MEG-01,> 2000 nM
same,IC50,MKN-1,> 2000 nM
same,IC50,NCI-H1437,606 nM
same,IC50,NCI-H1581,190 nM
same,IC50,NCI-H2122,> 2000 nM
same,IC50,NCI-H2347,824 nM
same,IC50,NY,> 2000 nM
same,IC50,OVCAR-5,429 nM
same,IC50,RD,> 2000 nM
same,IC50,RPMI-2650,1680 nM
same,IC50,SBC-1,45.8 nM
same,IC50,SF-268,> 2000 nM
same,IC50,SK-PN-DW,1760 nM
same,IC50,SN12C,807 nM
same,IC50,SNU-449,959 nM
same,IC50,SW982,685 nM
same,IC50,SAOS-2,1820 nM
same,IC50,5637,1770 nM
same,IC50,639-V,> 2000 nM
same,IC50,A388,> 2000 nM
same,IC50,A4-Fuk,1200 nM
same,IC50,ALL-PO,1440 nM
same,IC50,AN3-CA,79.5 nM
same,IC50,BHT-101,408 nM
same,IC50,C3A,> 2000 nM
same,IC50,CAL-120,860 nM
same,IC50,CAL-51,197 nM
same,IC50,VA-ES-BJ,343 nM
same,IC50,WM-115,689 nM
same,IC50,CAMA-1,622 nM
CC(=O)O[C@@]12CO[C@@H]1C[C@H](O)[C@@]1(C)C(=O)[C@H](O)C3=C(C)[C@@H](OC(=O)[C@H](O)[C@@H](NC(=O)OC(C)(C)C)c4ccccc4)C[C@@](O)([C@@H](OC(=O)c4ccccc4)[C@H]21)C3(C)C [DOCETAXEL],IC50,COLO-800,0.388 nM
same,IC50,D283 Med,6.24 nM
same,IC50,DK-MG,8.6 nM
same,IC50,ES6,> 10 nM
same,IC50,EW-11,1.69 nM
same,IC50,EW-3,0.745 nM
same,IC50,GAK,> 10 nM
same,IC50,HCC1937,> 10 nM
same,IC50,HCC1954,> 10 nM
same,IC50,HCC2218,> 10 nM
same,IC50,Huh-7,> 10 nM
same,IC50,IA-LM,> 10 nM
same,IC50,IST-SL1,3.12 nM
same,IC50,KE-37,> 10 nM
same,IC50,KLE,> 10 nM
same,IC50,KS-1,1.44 nM
same,IC50,LAN-6,> 10 nM
same,IC50,LS-123,4.25 nM
same,IC50,MC-IXC,0.479 nM
same,IC50,MDA-MB-453,4.51 nM
same,IC50,MEG-01,> 10 nM
same,IC50,MFH-ino,> 10 nM
same,IC50,MKN-1,> 10 nM
same,IC50,NCI-H1437,2.6 nM
same,IC50,NCI-H1581,2.17 nM
same,IC50,NCI-H2122,1.84 nM
same,IC50,NCI-H2347,> 10 nM
same,IC50,NY,> 10 nM
same,IC50,OVCAR-5,1.99 nM
same,IC50,RD,4 nM
same,IC50,RPMI-2650,2.46 nM
same,IC50,SBC-1,0.43 nM
same,IC50,SF-268,1.21 nM
same,IC50,SK-PN-DW,1.94 nM
same,IC50,SN12C,5.5 nM
same,IC50,SNU-449,> 10 nM
same,IC50,SW982,1.27 nM
same,IC50,SAOS-2,1.68 nM
same,IC50,5637,0.143 nM
same,IC50,639-V,0.647 nM
same,IC50,A388,2.65 nM
same,IC50,A4-Fuk,3.9 nM
same,IC50,ALL-PO,8.6 nM
same,IC50,AN3-CA,5.07 nM
same,IC50,BHT-101,9.8 nM
same,IC50,C3A,> 10 nM
same,IC50,CAL-120,4.35 nM
same,IC50,CAL-51,2.71 nM
same,IC50,VA-ES-BJ,0.375 nM
same,IC50,WM-115,6.27 nM
same,IC50,CAMA-1,1.31 nM
COc1ccc(C2=N[C@@H](c3ccc(Cl)cc3)[C@@H](c3ccc(Cl)cc3)N2C(=O)N2CCNC(=O)C2)c(OC(C)C)c1 [NUTLIN-3],IC50,COLO-800,> 8000 nM
same,IC50,D283 Med,3580 nM
same,IC50,DK-MG,2620 nM
same,IC50,ES6,> 8000 nM
same,IC50,EW-11,> 8000 nM
same,IC50,EW-3,> 8000 nM
same,IC50,GAK,> 8000 nM
same,IC50,HCC1937,> 8000 nM
same,IC50,HCC1954,> 8000 nM
same,IC50,HCC2218,7630 nM
same,IC50,Huh-7,> 8000 nM
same,IC50,IA-LM,> 8000 nM
same,IC50,IST-SL1,> 8000 nM
same,IC50,KE-37,> 8000 nM
same,IC50,KLE,> 8000 nM
same,IC50,KS-1,3020 nM
same,IC50,LAN-6,> 8000 nM
same,IC50,LS-123,> 8000 nM
same,IC50,MC-IXC,> 8000 nM
same,IC50,MDA-MB-453,> 8000 nM
same,IC50,MEG-01,> 8000 nM
same,IC50,MKN-1,> 8000 nM
same,IC50,NCI-H1437,> 8000 nM
same,IC50,NCI-H1581,> 8000 nM
same,IC50,NCI-H2122,6590 nM
same,IC50,NCI-H2347,> 8000 nM
same,IC50,NY,> 8000 nM
same,IC50,OVCAR-5,> 8000 nM
same,IC50,RD,> 8000 nM
same,IC50,RPMI-2650,7940 nM
same,IC50,SBC-1,> 8000 nM
same,IC50,SF-268,> 8000 nM
same,IC50,SK-PN-DW,> 8000 nM
same,IC50,SN12C,> 8000 nM
same,IC50,SNU-449,> 8000 nM
same,IC50,SW982,3510 nM
same,IC50,SAOS-2,> 8000 nM
same,IC50,5637,> 8000 nM
same,IC50,639-V,> 8000 nM
same,IC50,A388,> 8000 nM
same,IC50,A4-Fuk,> 8000 nM
same,IC50,ALL-PO,> 8000 nM
same,IC50,AN3-CA,> 8000 nM
same,IC50,BHT-101,> 8000 nM
same,IC50,C3A,> 8000 nM
same,IC50,CAL-120,> 8000 nM
same,IC50,CAL-51,> 8000 nM
same,IC50,VA-ES-BJ,2540 nM
same,IC50,WM-115,6930 nM
same,IC50,CAMA-1,> 8000 nM
O=C(c1cc(Cc2n[nH]c(=O)c3ccccc23)ccc1F)N1CCN(C(=O)C2CC2)CC1 [OLAPARIB],IC50,COLO-800,442 nM
same,IC50,D283 Med,> 5000 nM
same,IC50,DK-MG,> 5000 nM
same,IC50,ES6,> 5000 nM
same,IC50,EW-11,> 5000 nM
same,IC50,EW-3,2280 nM
same,IC50,GAK,> 5000 nM
same,IC50,HCC1937,> 5000 nM
same,IC50,HCC1954,> 5000 nM
same,IC50,HCC2218,3730 nM
same,IC50,Huh-7,> 5000 nM
same,IC50,IA-LM,> 5000 nM
same,IC50,IST-SL1,> 5000 nM
same,IC50,KE-37,> 5000 nM
same,IC50,KLE,> 5000 nM
same,IC50,KS-1,> 5000 nM
same,IC50,LAN-6,> 5000 nM
same,IC50,LS-123,> 5000 nM
same,IC50,MC-IXC,3630 nM
same,IC50,MDA-MB-453,> 5000 nM
same,IC50,MEG-01,> 5000 nM
same,IC50,MKN-1,> 5000 nM
same,IC50,NCI-H1437,> 5000 nM
same,IC50,NCI-H1581,> 5000 nM
same,IC50,NCI-H2122,> 5000 nM
same,IC50,NCI-H2347,> 5000 nM
same,IC50,NY,> 5000 nM
same,IC50,OVCAR-5,> 5000 nM
same,IC50,RD,> 5000 nM
same,IC50,RPMI-2650,> 5000 nM
same,IC50,SBC-1,4810 nM
same,IC50,SF-268,> 5000 nM
same,IC50,SK-PN-DW,> 5000 nM
same,IC50,SN12C,> 5000 nM
same,IC50,SNU-449,> 5000 nM
same,IC50,SW982,> 5000 nM
same,IC50,SAOS-2,> 5000 nM
same,IC50,5637,> 5000 nM
same,IC50,639-V,> 5000 nM
same,IC50,A388,> 5000 nM
same,IC50,A4-Fuk,> 5000 nM
same,IC50,ALL-PO,> 5000 nM
same,IC50,AN3-CA,> 5000 nM
same,IC50,BHT-101,> 5000 nM
same,IC50,C3A,> 5000 nM
same,IC50,CAL-120,> 5000 nM
same,IC50,CAL-51,> 5000 nM
same,IC50,VA-ES-BJ,> 5000 nM
same,IC50,WM-115,> 5000 nM
same,IC50,CAMA-1,> 5000 nM
